From ChEMBL document CHEMBL1926640, “Structure-based rational design of novel hit compounds for pyruvate dehydrogenase multienzyme complex E1 components from Escherichia coli” (Bioorg Med Chem, 2011) come the findings set out here.

Usually IC50 stands for the concentration that inhibits the measured activity by half. A high value points to weaker potency in that assay.

The test in a line: Inhibition of Escherichia coli PDHc-E1 expressed in Escherichia coli TB1 using sodium pyruvate as substrate after 3 mins by 2,6-DCIP reduction assay.
For `Cc1ncc(Cn2cc(COc3ccccc3)nn2)c(N)n1`, the concentration for half-maximal inhibition (IC50) came out at 55.1 µM.

With `Cc1ncc(Cn2cc(COc3ccc([N+](=O)[O-])cc3Cl)nn2)c(N)n1`, inhibition was half-maximal at 6.88 µM (IC50). As for `Cc1ncc(Cn2cc(COc3ccc(C(=O)O)cc3)nn2)c(N)n1`, the figure is 15.1 µM. `Cc1ncc(Cn2cc(COc3ccc([N+](=O)[O-])cc3)nn2)c(N)n1`: the IC50 stood at 8.8 µM.
